Measurements: a melting point compilation (Tetko et al.; mined from patent text by program, amines drawn as free bases though some values may be those of a salt)

Row | Compound | melting point [°C]
1 | CCOc1ccc2nc3cc(OC)c(=O)c(Cl)c-3sc2c1 | 236 to 239
2 | CCOCCOC(=O)C(=O)Nc1nc(-c2c(C)cc(C)cc2C)cs1 | 124 to 125
3 | Cc1ccc(N=c2ccn3ccccc3c2)cc1C | 185 to 187
4 | NC(=O)CNC(=O)c1cc2c(Oc3ccc(Cl)cc3)cncc2s1 | 222 to 225
5 | COc1ccc2c(c1)S(=O)(=O)N=CN2CCO | 160 to 162
6 | COc1ccc2c(Br)c(C)sc2c1 | 80 to 81
7 | CCCCCCCCCCCC(=O)NC(=O)OCc1nc(C(C)C)c(Sc2cc(Cl)cc(Cl)c2)n1CC | 100 to 102
8 | O=C(Nc1ccccc1)Nc1ccnc(Br)c1 | 188 to 189
9 | COc1cc2c(cc1OC)C(c1cc(N)ccc1Cl)=NN=C(C)C2 | 188 to 190
10 | Cc1cc(SC(C)C)c(NC(=O)CCCCCCCCSc2nc3cccc(C(F)(F)F)c3o2)c(SC(C)C)n1 | 97 to 98
11 | Nc1ccc2cccc(Oc3cc(-c4ccc(C(F)(F)F)cc4)ccn3)c2n1 | 196 to 200
12 | O=[N+]([O-])c1cc2n(n1)CCOC2 | 110 to 112
13 | COc1ccc(OC(=O)c2c(Cl)cccc2Cl)cc1OC1CCCC1 | 100 to 101
14 | CCNC(=S)NS(=O)(=O)c1cnccc1NC1CCCCCCC1 | 196 to 198
15 | CC1(c2n[nH]c(=O)o2)CC1 | 68 to 70
16 | CCOC(=O)NCC(CC)C(NC(=O)OCC)NC(=O)OCC (stereo unspecified) | 120 to 122
17 | CS(=O)(=O)c1ccc(C(CC2CCCC2)C(=O)O)cc1Br (stereo unspecified) | 149 to 150
18 | Oc1ccc(F)cc1Cc1ccc(F)cc1 | 134 to 139
19 | CC(C)(C)OC(=O)NCc1ccc(C2(C)OCCO2)cc1 | 105 to 107
20 | CC(=O)c1ccc2oc3ncccc3c(=O)c2c1 | 195 to 196
21 | COc1cc(Nc2nc3cccc(-c4ccc5[nH]cnc5c4)c3o2)cc(OC)c1OC | 150 to 156
22 | C[C@@H](Oc1c(Br)cc(-c2c3ccccc3c(Br)c3sc4ccccc4c23)cc1Br)C(=O)O | 131 to 133
23 | COC(=O)c1nc(C)c(-c2ccncc2)s1 | 121 to 123
24 | COC(=O)NCC1CN(c2ccc(C3C=CS(=O)(=O)CC3)cc2)C(=O)O1 (stereo unspecified) | 196 to 197
25 | Nc1ccc(F)c(-c2cncnc2)c1F | 141 to 143
26 | Fc1ccc(Nc2nc(N/N=C/c3ccc4ccccc4c3)nc(N3CCOCC3)n2)cc1 | 225 to 226

Row | Compound | melting point [°C]
27 | Fc1ccccc1C1=NCc2cncnc2-c2ccc(Cl)cc21 | 122 to 124
28 | CCN(CC)CCNC(=O)c1cc(Cl)c(N)cc1OCCCCS(C)=O (stereo unspecified) | 80 to 83
29 | CC(=O)Nc1ccc2c(c1)C(=O)N(CCCl)CO2 | 133 to 135
30 | COc1ccc(-c2cc(=S)n(Cc3cc(OC)c(OC)c(OC)c3)nc2-c2ccc(OC)cc2)cc1 | 142 to 146
31 | CCOC(=O)COc1ccc(-c2ccc(Cl)c(C(=O)NCC34CC5CC(CC(C5)C3)C4)c2)cc1 | 136 to 140
32 | CCOC(=O)Cc1nc(-c2ccc(F)cc2)c(-c2ccc(S(C)(=O)=O)cc2)o1 | 123 to 124
33 | CCN1C(=O)CCCc2c1ccc(Nc1ncc(Cl)c(Nc3ccccc3C(=O)NC)n1)c2OC | 225 to 227
34 | Cc1noc(C)c1CN1C(=O)C2(COc3cc4c(cc32)OCO4)c2ccccc21 (stereo unspecified) | 165 to 167
35 | O=C(CCC#Cc1ccccn1)Nc1cccc(F)c1 | 110 to 114
36 | COc1cc2c(cc1OC)CC(=O)NC(=O)C2 | 235
37 | Cc1ccc2c(c1)CN(C(=O)NCCc1ccc(S(=O)(=O)NC(=O)NC3CCCCC3)cc1)C2=O | 216 to 218
38 | CC(C)(Oc1ccc(CCC(=O)c2ccc(-c3ccc(C(F)(F)F)cc3)o2)c(Cl)c1Cl)C(=O)O | 85
39 | C#Cc1cnc2c(NC(=O)c3c(Cl)cccc3Cl)cccc2c1 | 219 to 220
40 | N#Cc1c(Cl)c2cc(F)cnc2[nH]c1=O | 272
41 | CC(C)C(=O)C(O)(Cc1ccc(Cl)cc1Cl)c1cccnc1 (stereo unspecified) | 144 to 145
42 | c1ccc(-c2ccc3[nH]c4ccccc4c3c2)cc1 | 221
43 | CC(C)Nc1cccnc1N1CCN(C(=O)c2ccc(C(=O)N[C@H](CO)CC3CCCCC3)cc2)CC1 | 139 to 140
44 | Cc1nsc(OCC(F)(F)F)c1[N+](=O)[O-] | 63 to 64
45 | COc1ccc(Nc2cc(Cl)ccc2[N+](=O)[O-])cc1 | 98
46 | Clc1cc(OCCOc2ccc3ccccc3c2)cc(Cl)c1Br | 140 to 142
47 | Cc1ccc(N2C(=O)NC(=O)C23CCNCC3)cc1 | 128 to 130
48 | CNC(=O)c1cc(Oc2ccc(NC(=O)Nc3ccc(Br)c(C(F)(F)F)c3)cc2)ccn1 | 203 to 205
49 | COc1ccc(N2CNC(=O)C23CCN(CCCN(c2ccccc2)c2ccccc2)CC3)cc1 | 156 to 158
50 | CC1(C)CC(O)CC(C)(C)N1N=Nc1ccccc1Br | 81
51 | CC(C(=O)N(C)C)n1cc(Cl)c(-c2ccccc2Cl)n1 (stereo unspecified) | 108 to 111
52 | COc1ccc2c(c1)c(CC(=O)NCC(C)(C)S)c(C)n2C(=O)c1ccc(Cl)cc1 | 177 to 178

Row | Compound | melting point [°C]
53 | CC(=O)OCC1OC(n2ccnc2[N+](=O)[O-])CC1OC(C)=O (stereo unspecified) | 155
54 | CS(=O)(=O)NCc1cccc(-c2nc(=O)c3ccccc3s2)n1 | 188 to 190
55 | CN1CCN(C(=O)c2ccc(-c3cnc4c(c3)N(Cc3cc(F)c(F)cc3F)C(=O)CN4)cc2)CC1 | 238
56 | CCNc1nc2ccc(COc3cccc(CN4CCCCC4)c3)cc2o1 | 105 to 106
57 | CCC(CC)c1ccc(C#N)c2nc(Nc3c(C)cc(Cl)cc3OC)n(C)c12 | 223 to 225
58 | CC(C)Oc1ccccc1Oc1ccc(NC(=O)N2CCc3ccccc3CC2)cn1 | 149 to 152
59 | CCCN1NC(c2ccc(OC)cc2)C2=C1C(=Cc1ccc(OC)cc1)CSC2 (stereo unspecified) | 132 to 134
60 | COc1nncc(-c2cccc(C(F)(F)F)c2)n1 | 95 to 97
61 | N=C(Nc1ccc(Cl)cc1)Nc1ncccc1Cc1ccccc1F | 175 to 176
62 | O=C1c2ccccc2C(=O)N1CCCCOc1ccc(-n2cnnn2)cc1 | 143 to 145
63 | CC(C)[C@@H](NCC1(O)OC[C@@H](O)[C@@H](O)[C@@H]1O)C(=O)O (stereo partly specified) | 125 to 126
64 | COc1ccc(CN2C(=O)C3(COc4cc5c(cc43)CCO5)c3c2ccc2ncccc32)cc1 (stereo unspecified) | 169 to 170
65 | CNN1CSC(=Cc2cc(C(C)(C)C)c(O)c(C(C)(C)C)c2)C1=O | 151 to 154
66 | CCCCc1nc(=O)c2cc(Br)c(F)cc2[nH]1 | 225
67 | O=C(c1ccc(CN2CC=CCC2)cc1)N1CCN2C(=O)OC(c3ccccc3)(c3ccccc3)C2C1 (stereo unspecified) | 189 to 191
68 | COc1cc(Nc2nccc(-c3cccc(NC(=O)c4cccnc4)c3)n2)cc(OC)c1OC | 140 to 143
69 | Cc1nn(-c2ccc(F)cc2)cc1C(=O)Nc1ccc(OCC(C)(C)C)c(C#N)c1 | 181 to 182
70 | Cn1c(C(F)(F)F)cc(=O)n(-c2ccc(Cl)c3c2OC(C)(C)C3=O)c1=O | 177 to 178
71 | COc1ccc2cc(CC3=C(CC(=O)O)CCCC3=O)ccc2c1Br | 165 to 166
72 | COc1ccc(C(=O)Nc2ccccc2)cc1NC(=S)Nc1ccc(Cl)c(Cl)c1 | 174 to 175
73 | CNC(=O)c1cc(Oc2ccc(NC(=O)Nc3ccc4c(cnn4C)c3)c(F)c2)ccn1 | 231 to 234
74 | c1ccc(CCNc2nc3ccccc3c3[nH]c(C4CCCC4)nc23)cc1 | 95 to 97
75 | CC(C)(C)CC(C)(C)c1cc(-n2nc3ccc(C(=O)O)cc3n2)c(O)c(C(C)(C)c2ccccc2)c1 | 219 to 221
76 | CCC(O)=C1SC(=S)N(c2ccccc2)C1=O | 105 to 111
77 | COc1ccc2c(c1)c(CC(=O)O)c(C)n2-c1ncnc2cc(Cl)ccc12 | 202 to 204
78 | CCOC(=O)/C=C/C=C/C(=O)c1cc2c(cc1C)C(C)(C)CCC2(C)C | 101 to 102

Row | Compound | melting point [°C]
79 | CCN(CC)C(=O)c1c(C(C)C)cc(OC)cc1S(N)(=O)=O | 122 to 125
80 | CC(C)(C)[C@H]1CC[C@H](CCC(=O)O)CC1 | 105 to 107
81 | CS(=O)(=O)N1CCCn2c(nc3c(N)nc4cc(Br)ccc4c32)C1 | 303
82 | CC1(C)OC(=O)Nc2ccc(-c3cc(F)cc(Cl)c3)cc21 | 193 to 194
83 | N#Cc1cccc(OCc2cccc(OCc3ccc4ccccc4n3)c2)c1 | 86 to 87
84 | COc1ccccc1C1CSc2ccccc2NC1=O (stereo unspecified) | 219
85 | COC(=O)CCc1ccc(C(=O)O)cc1 | 146 to 148
86 | Cn1cccc1C1=CC(=O)c2nccnc2C1=O | 161 to 162
87 | O=C1Nc2ccc(Cl)cc2Cn2nnnc21 | 260 to 264
88 | O=[N+]([O-])c1oc2c(CO)cccc2c1-c1ccccc1 | 128 to 130
89 | CCCCCCCCCCCCCCCCCc1nc(C(C)N)c[nH]1 (stereo unspecified) | 38 to 40
90 | Cc1oc(-c2ccccc2)nc1COc1ccc(CCC(C(=O)O)c2c[nH]nc2-c2ccccc2)cc1 (stereo unspecified) | 104 to 105
91 | CNC(=O)N1CC(Sc2ccc(Cl)cc2)C1 | 161 to 162
92 | CNC(=O)OCC(F)(F)Cn1nc(C)c(-c2ccc3c(c2)NC(=O)CO3)c1-c1ccc(F)cc1 | 112
93 | CCC(=O)Nc1nc2ccc(Cl)cc2n2c(CC)nnc12 | 212 to 215
94 | COc1cc(N2CCN(C[C@H](C)O)CC2)ccc1Nc1ncc2ccc(-c3ccccc3S(C)(=O)=O)n2n1 | 98 to 100
95 | Oc1ccc(Nc2nc(NCc3ccco3)nc(-n3ccnc3)n2)cc1 | 244 to 246
96 | COc1ccc(C(=O)C2(Br)CCCCC2)c(Cl)c1Cl | 94 to 95
97 | Cc1ccc(C(O)C(=O)c2ccc(Br)cc2)cc1 (stereo unspecified) | 80 to 82
98 | O=C(O)CCCCCOc1ccc(OCc2ccccc2)cc1 | 100 to 101
99 | O=C(Nc1ccc(-n2nc(C(F)(F)F)cc2OC(F)F)cc1)c1ccccc1F | 130 to 131
100 | CN(CCOc1ccc(NC(=O)c2cccc3c(=O)c4ccccc4[nH]c23)cc1)Cc1ccccc1 | 173
101 | OC(Cc1nc[nH]n1)(Cc1nc[nH]n1)c1ccc(Cl)cc1Cl | 182 to 185
